Measured values from PubChem BioAssay (NCI).
Values joined by “and” are separate entries in the source; they are usually repeats but may differ in a detail not shown here. Identical values can stand only once.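 A five-concentration, 48-hour dose response in 96-well plates underlies each endpoint, interpolated linearly between surrounding concentrations. Abbreviation: GI50, concentration required for 50% inhibition of growth. Definition used: TGI = concentration required for complete inhibition of growth.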

What was measured:
Test in all cases: NCI anticancer screen, dose series, 48 h
MDA-MB-468 breast = tested on: MDA-MB-468 breast
OVCAR-4 ovarian = tested on: OVCAR-4 ovarian
MOLT-4 leukemia = tested on: MOLT-4 leukemia
ACHN renal = tested on: ACHN renal
TK-10 renal = tested on: TK-10 renal
A498 renal = tested on: A498 renal
OVCAR-3 ovarian = tested on: OVCAR-3 ovarian
SK-MEL-2 melanoma = tested on: SK-MEL-2 melanoma
RPMI-8226 leukemia = tested on: RPMI-8226 leukemia
CCRF-CEM leukemia = tested on: CCRF-CEM leukemia
HCC-2998 colon = tested on: HCC-2998 colon
HCT-15 colon = tested on: HCT-15 colon
HL-60(TB) leukemia = tested on: HL-60(TB) leukemia
786-0 renal = tested on: 786-0 renal
NCI-H23 lung = tested on: NCI-H23 lung
DU-145 prostate = tested on: DU-145 prostate
SNB-19 CNS = tested on: SNB-19 CNS
EKVX NSCLC = tested on: EKVX NSCLC
RXF 393 renal = tested on: RXF 393 renal
BT-549 breast = tested on: BT-549 breast
MCF7 breast = tested on: MCF7 breast

COC(=O)N[C@@H](C)CNc1nccc(-c2cn(C(C)C)nc2-c2cc(Cl)cc(NS(C)(=O)=O)c2F)n1
GI50 (MDA-MB-468 breast): 24800 nM | TGI (MDA-MB-468 breast): > 100000 nM

Cn1cc(-c2csc(-c3ccc(Cl)cc3)n2)c2cccnc21
GI50 (MDA-MB-468 breast): 10500 nM | TGI (MDA-MB-468 breast): 31100 nM

COc1ccc(/C=C(\C#N)c2cc(OC)c(OC)c(OC)c2)cc1
GI50 (MDA-MB-468 breast): 22.2 nM | TGI (MDA-MB-468 breast): 2520 nM

CN(CCOc1ccc(NS(C)(=O)=O)cc1)CCc1ccc(NS(C)(=O)=O)cc1
GI50 (MDA-MB-468 breast): > 100000 nM | TGI (MDA-MB-468 breast): > 100000 nM

CN(Cc1cnc2nc(N)nc(N)c2n1)c1c(Cl)cc(C(=O)NC(CCC(=O)O)C(=O)O)cc1Cl (configuration not stated)
GI50 (MDA-MB-468 breast): < 21.1 nM

O=C(NCc1cn(Cc2cccc(Oc3ccccc3)c2)nn1)c1cccnc1NCc1ccc(Cl)cc1
GI50 (MDA-MB-468 breast): 3440 nM | TGI (MDA-MB-468 breast): > 100000 nM

CCOc1ccc2cc(-c3nn(CC4CCN(C)CC4)c4ncnc(N)c34)ccc2c1
GI50 (MDA-MB-468 breast): 14500 nM | TGI (MDA-MB-468 breast): 32200 nM

COc1ccc(C2=NNC(c3sc(Cl)nc3Cl)C2)cc1 (configuration not stated)
GI50 (MDA-MB-468 breast): 2600 nM | TGI (MDA-MB-468 breast): 8190 nM

COc1cccc(C2C(C#N)=C(N)Oc3cc(OCCCCCC[P+](c4ccccc4)(c4ccccc4)c4ccccc4)ccc32)c1 (configuration not stated)
GI50 (MDA-MB-468 breast): 222 nM | TGI (MDA-MB-468 breast): 611 nM

CN(C)CCN=c1nc2c(c(N)n1-c1ccccc1)c(=S)n(-c1ccccc1)c(=S)n2-c1ccccc1
GI50 (MDA-MB-468 breast): 1360 nM | TGI (MDA-MB-468 breast): 3020 nM

CC(C)(O)c1cc(Nc2cc(Oc3cn(C4CC4)nc3C3CCOCC3)ccn2)ccn1
GI50 (MDA-MB-468 breast): 30600 nM | TGI (MDA-MB-468 breast): > 100000 nM

Fc1ccc(-c2ncn(C3CCNCC3)c2-c2ccnc(Oc3ccc(Cl)cc3)n2)cc1
GI50 (MDA-MB-468 breast): 1780 nM | TGI (MDA-MB-468 breast): 5360 nM

COc1ccc(N=c2nc3sc4cc(Cl)ccc4n3c(N)c2C#N)cc1
GI50 (MDA-MB-468 breast): 1110 nM | TGI (MDA-MB-468 breast): 19700 nM

O=C(O)C(Cc1ccccc1)N1C(=O)/C(=C/C(Cl)=C/c2ccc([N+](=O)[O-])cc2)SC1=S (configuration not stated)
GI50 (MDA-MB-468 breast): 1390 nM | TGI (MDA-MB-468 breast): 3280 nM

CSCc1ncc(-c2ccc(C(F)(F)F)cc2)c(NC2CCCCCC2)n1
GI50 (MDA-MB-468 breast): > 10000 nM | TGI (MDA-MB-468 breast): > 10000 nM

COc1ccc2c(c1)[n+](=O)c(/C=C/C(=O)c1cc(OC)c(OC)c(OC)c1)c(C)n2[O-]
GI50 (MDA-MB-468 breast): 3160 nM | TGI (MDA-MB-468 breast): 18000 nM

COc1cc(N)c(Cl)cc1C(=O)N[C@@H]1CCN(CCCOc2ccc(F)cc2)C[C@@H]1OC
GI50 (MDA-MB-468 breast): 89400 nM | TGI (MDA-MB-468 breast): > 100000 nM

CC(=O)c1nc(-c2ccc(C[C@@H](CNC(=O)CN(C)C)NC(=O)c3ccc(OC(C)C)c(Cl)c3)cc2)cn1C
GI50 (MDA-MB-468 breast): 39.9 nM | TGI (MDA-MB-468 breast): 14300 nM

CCS(=O)(=O)c1cccc(-c2cc(C(=O)NC3CCN(C)CC3)c(C)c3[nH]c4ncc(C)cc4c23)c1
GI50 (MDA-MB-468 breast): 192 nM and 86.9 nM | TGI (MDA-MB-468 breast): 2690 nM and 470 nM

COc1ccc(C2C3=C(COC3=O)Oc3cc4c(cc32)OCO4)cc1OC (configuration not stated)
GI50 (MDA-MB-468 breast): 4700 nM | TGI (MDA-MB-468 breast): > 100000 nM

C=C1C(=O)O[C@@H]2C[C@@H](C)[C@@H]3C=CC(=O)[C@@]3(C)[C@@H](OC(=O)CCCC(=O)O[C@H]3[C@@H]4C(=C)C(=O)O[C@@H]4C[C@@H](C)[C@@H]4C=CC(=O)[C@]43C)[C@H]12
GI50 (MDA-MB-468 breast): 14.3 nM | TGI (MDA-MB-468 breast): 32.8 nM

C/C(=N\NC(=S)N1CCCC1)c1ccccn1
GI50 (MDA-MB-468 breast): < 10 nM | TGI (MDA-MB-468 breast): 80.1 nM

COc1ccc(CN2c3ccccc3Sc3ccccc32)cc1O
GI50 (MDA-MB-468 breast): 531 nM | TGI (MDA-MB-468 breast): 12300 nM

N#C/C(=C/C=C/c1cccc(Cl)c1)S(=O)c1ccccc1 (configuration not stated)
GI50 (MDA-MB-468 breast): 258 nM | TGI (MDA-MB-468 breast): 758 nM

CCCCS(=O)(=O)c1cc(Nc2ccc(O)c3c2C(=O)c2ccccc2C3=O)ccc1C
GI50 (MDA-MB-468 breast): 88300 nM | TGI (MDA-MB-468 breast): > 100000 nM

CCCCC[C@H]1C/C=C2/C(=O)C=C[C@@H]2C/C=C\CCCC(=O)O1
GI50 (MDA-MB-468 breast): 134 nM | TGI (MDA-MB-468 breast): 577 nM

COc1ccc2nc(Nc3cccc(NC(=O)c4ccc(CN5CCCN(C)CC5)c(C(F)(F)F)c4)c3)ccc2c1
GI50 (OVCAR-4 ovarian): 171 nM | TGI (OVCAR-4 ovarian): 340 nM | GI50 (MOLT-4 leukemia): 102 nM | TGI (MOLT-4 leukemia): 352 nM | GI50 (ACHN renal): 171 nM | TGI (ACHN renal): 308 nM | GI50 (MDA-MB-468 breast): 125 nM | TGI (MDA-MB-468 breast): 256 nM | GI50 (TK-10 renal): 179 nM | TGI (TK-10 renal): 318 nM | GI50 (A498 renal): 177 nM | TGI (A498 renal): 325 nM | GI50 (OVCAR-3 ovarian): 177 nM | TGI (OVCAR-3 ovarian): 334 nM | GI50 (SK-MEL-2 melanoma): 175 nM | TGI (SK-MEL-2 melanoma): 315 nM | GI50 (RPMI-8226 leukemia): 176 nM | TGI (RPMI-8226 leukemia): 456 nM | GI50 (CCRF-CEM leukemia): 173 nM | TGI (CCRF-CEM leukemia): 531 nM | GI50 (HCC-2998 colon): 175 nM | TGI (HCC-2998 colon): 313 nM | GI50 (HCT-15 colon): 51.1 nM | TGI (HCT-15 colon): 170 nM | GI50 (HL-60(TB) leukemia): 189 nM | TGI (HL-60(TB) leukemia): 438 nM | GI50 (786-0 renal): 169 nM | TGI (786-0 renal): 309 nM | GI50 (NCI-H23 lung): 148 nM | TGI (NCI-H23 lung): 282 nM | GI50 (DU-145 prostate): 171 nM | TGI (DU-145 prostate): 316 nM | GI50 (SNB-19 CNS): 173 nM | TGI (SNB-19 CNS): 313 nM | GI50 (EKVX NSCLC): 167 nM | TGI (EKVX NSCLC): 307 nM | GI50 (RXF 393 renal): 134 nM | TGI (RXF 393 renal): 267 nM | GI50 (BT-549 breast): 160 nM | TGI (BT-549 breast): 297 nM | GI50 (MCF7 breast): 121 nM | TGI (MCF7 breast): 261 nM

COc1ccc(C(=O)c2ccccc2)c(O)c1
GI50 (MDA-MB-468 breast): 40000 nM | TGI (MDA-MB-468 breast): > 100000 nM

CCOC(=O)/C=C/c1ccc([N+](=O)[O-])o1
GI50 (MDA-MB-468 breast): 3760 nM | TGI (MDA-MB-468 breast): 17500 nM

CCC(=C(c1ccc(OCCN2CCCCCC2)cc1)c1ccc(OCCN2CCCCCC2)cc1)c1ccc(Cl)cc1
GI50 (MDA-MB-468 breast): 656 nM | TGI (MDA-MB-468 breast): 1490 nM

CCOC(=O)c1sc(NC(=O)COc2ccc(/C=C3\CCc4cc(OC)ccc4C3=O)cc2)nc1C
GI50 (MDA-MB-468 breast): 1730 nM | TGI (MDA-MB-468 breast): 7200 nM

Cc1cc(C)c(-c2c(O)c(Br)c(-c3c(C)cc(C)c(Br)c3C)c(O)c2Br)c(C)c1Br
GI50 (MDA-MB-468 breast): 2830 nM | TGI (MDA-MB-468 breast): 11100 nM

CCN(CC)c1ccc(/C=N/N=C(N)N)cc1
GI50 (MDA-MB-468 breast): 1880 nM | TGI (MDA-MB-468 breast): 6610 nM

COc1cc(C2CC(c3ccc(Cl)cc3)=NN2C(C)=O)ccc1Oc1ccnc2cc(Cl)ccc12 (configuration not stated)
GI50 (MDA-MB-468 breast): 4220 nM | TGI (MDA-MB-468 breast): > 100000 nM
